Entries after “also recorded” stand apart in the source; their conditions may differ.
Legend:
[1] = Lyso-Gb1 determination in organs (LC/MRM-MS); format: in vivo, C57BL/6JRj mice
Description: After extraction from the animal, the organs were immediately deep-frozen in liquid nitrogen. The samples were lyophilized (Alpha 2-4 LSC, Christ, Osterode am Harz, GER) and powdered with mortar and pistil. Fractions of 2 to 5 mg powder were established in round bottom tubes. On top of the powder, 50 μl per mg powder extraction solution was added and the sample was incubated for 5 minutes at 37° C. under agitation. Subsequently, the samples were frozen in liquid nitrogen for 30 seconds and sonicated with boost function for 5 minutes. The incubation, freezing and sonication steps were repeated 6 times. At the end the mixtures were vortexed and aliquots of 25 μl suspension were used for the lyso-Gb1 determination. Each sample was supplemented with 100 μl Internal Standard (lyso-Gb2, 200 ng/ml) and 250 μl ethanol. The samples were cooled at 4° C. for 1 h to precipitate the membrane proteins and spun in a benchtop centrifuge for 3 minutes at 14.5 krpm. The volume of each sample was quantitatively transferred to a 96-well filter plate and further processed as described above.
(§1) LC-MRM-MS analyses of the lyso-Gb1 for both DBS and organ extracts were performed using a Waters Acquity UPLC (Waters, UK) coupled with an ABSciex 5500 TripleQuad mass spectrometer (ABSciex, Darmstadt, Germany). Chromatographic run was performed on a C8 column with pore size of 3 mM (ACE columns, Germany) using a flow rate of 0.9 ml/min preheated at 60° C. The 10 μl extract were injected on the column and the compounds were eluted using a linear gradient from 40% A (50 mM formic acid in water) to 100% B (50 mM formic acid in acetone:acetonitrile vol. 1:1). Upstream from UPLC a 3:1 flow splitter was added. The following MRM transitions were monitored: 624.3-282.2 for the internal standard (with DP of 30V, CE of 38 V and CXP of 10 V) and 462.3→282.2 for lyso-Gb1 (with DP of 28V, CE of 30 V and CXP of 10 V). MRM-MS analyses were performed in positive ion mode using the following parameters: CUR gas 40 psi, IS voltage 5.5 kV, CAD 8 psi, cone temperature 500° C., GS 1 45 psi, GS2 60 psi, EP 10 V. For all batches analyzed a standard curve was measured using 7 dilutions of lyso-Gb1 in ethanol (concentrations in ng/ml: 0; 5; 10; 50; 100; 200; 1000).
After 4 weeks from treatment start the organs of the mice were subjected to lyso-Gb1 analysis.

[2] = tested on: CD68 and F4/80 positive cells; assay: Immunohistochemistry of spleen sections (anti-CD68, anti-F4/80); format: in vivo, C57BL/6JRj mice
Description: For immunohistochemistry 5 μm paraffin sections of the spleens of 8-week treated mice were subjected to rat anti-CD68 clone FA-11 (1:100, Bio-Rad Laboratories, Raleigh, N.C., USA) and rat anti-mouse F4/80 Cl:A3-1 (1:100, BioLegend, San Diego, Calif., USA). Sections were then deparaffinised, rehydrated and pre-treated in the microwaves in 0.1 M citrate buffer (5 min 850 W and 5 min 340 W) followed by consecutive incubation with 3% H2O2 in PBS to block endogenous peroxidases for 30 min, then 3% bovine serum albumin with 1.5% normal goat serum (NGS) in PBS for 1 h to block nonspecific epitopes. Subsequently, sections were exposed to the primary antibody in 3% NGS/PBS overnight at 4° C. Depending on the primary antibody and after washing in PBS, the sections were sequentially incubated for 1 h with the secondary anti-rat or anti-mouse IgG (1:200; Vector, Burlingame, Calif., USA), streptavidin-biotin-complex (ABC) reagent for 1 h (Vectastain-Elite; Vector, Burlingame, Calif., USA) and then finally visualised with 3,-3,-diaminobenzidine (DAB, Sigma, Munich, Germany), which was activated with H2O2. Sections were counterstained with hematoxylin, dehydrated, mounted with DePeX and coverslipped.

[3] = Histopathological evaluation (H&E) of spleen, liver and femur; format: in vivo, C57BL/6JRj mice; conditions: data not shown
Description: After removal, organs were fixed in formalin for 24 h and transferred into 70% ethanol. To ensure a non-biased comparison the same parts of organs were analysed by HISTALIM (Montpellier, France). The samples were processed on the Peloris automaton (Leica, Wetzlar, Germany) according to the 4 h program validated for mouse organs. The samples were embedded in paraffin wax according to HISTALIM procedures. For the liver, spleen and femur samples, a section (3-5 μm thickness) was prepared and deposited preferentially on Superfrost+slide (to ensure tissue adhesion) to be stained according to a validated hematoxylin/eosin (H&E) protocol. All the slides were digitalised with the Nanozoomer scanner (Hamamatsu Photonics, Hamamatsu, Japan) in conditions bright field conditions, with the objective×20, without Z stack. Slides were examined by a senior histopathologist to assess the toxicological effects of lyso-Gb1 on the tested mice.

TNF-α and IL-1β = assay: Cytokine analysis in blood (ProcartaPlex Multiplex Immunoassay); format: in vivo, mice
Description: The ProcartaPlex® Multiplex Immunoassay (ebioscience, San Diego, Calif.) was carried out following the instructions of the provider. Differences between the animal groups were obtained using automated MAGPIX® analysis device software (Luminex, Austin, Tex.) including quality control criteria.

F4/80 and CD68 = assay: Western blot of inflammatory tissue markers F4/80 and CD68 in spleen and liver; format: in vivo, C57BL/6JRj mice
Description: Livers and spleens were homogenized in RIPA buffer containing proteinase and phosphatase inhibitor (Roche, Mannheim, GER). Lysates were centrifuged at 15,000 g, 4° C. for 15 min to remove insoluble pellet, and supernatant was collected. Protein concentration was measured using Pierce BCA Protein Assay Kit (Thermo Fisher Scientific, Waltham, Mass.). Typically, […] protein was loaded for electrophoresis on a 4%-15% precast Tris-glycine gradient gel (BioRad, Mannheim, GER). The protein was subsequently transferred to a nitrocellulose membrane by semidry transfer apparatus (BioRad, Munich, GER) for immunodetection analysis. The target proteins were detected by rat anti F4/80 (1:500, Biolegend, San Diego, Calif.), rat anti-CD68 [FA-11] (1:200 abcam, Cambridge, UK) mouse anti GAPDH (1:10,000, abcam, Cambridge, UK), each in TBST supplemented with 5% skim milk powder (Sigma Aldrich, Munich, GER). Fluorescent conjugate secondary antibodies were applied for the detection with a Li-Cor Odyssey imaging system (Bad Homburg, GER).
In order to investigate the molecular changes of both spleen and liver in terms of tissue inflammation macrophagic marker proteins F4/80 and CD68 were analysed.

[4] = Blood count analysis for systemic damage; format: in vivo, C57BL/6JRj mice
Description: Mice were exsanguinated via the retrobulbar venous plexus under isoflurane anesthesia before being sacrificed by overdose inhalation. 200 μL EDTA samples of whole blood were drawn from each animal to analyze […], leukocyte count, erythrocyte count, hemoglobin (Hb), hematocrit (PCV=packed cell volume, Hct), mean cell volume (MCV), mean cell Hb (MCH), mean cell Hb concentration. (MCHC) and platelet count (PLT) (IDEXX Bioresearch, Ludwigsburg, Germany).
3.1 It was tested whether the high lyso-Gb1 levels caused systemic damage to the animals. Such systemic damage was assessed by blood count analysis.

[5] = Lyso-Gb1 level in blood (dried blood spots, LC/MRM-MS) upon continuous subcutaneous administration; format: in vivo, C57BL/6JRj mice
Description: (§2) Animal experimental procedures were carried out at Pharmacelsus GmbH, Saarbrücken, Germany. Adult male C57BL/6JRj mice (10 weeks old, purchased from Janvier Labs, France) were housed in a temperature-controlled room (20-24° C.) and maintained in a 12 h light/12 h dark cycle. Food (Ssniff® R/M-H, 10 mm) and water were provided ad libitum.
All experimental procedures were approved by and conducted in accordance with the regulations of the local Animal Welfare authorities. The lyso-Gb1 stock solution was prepared in DMSO and propylene glycol at 37° C. with ultrasonic bath treatment for 10 min. Subcutaneous administration of lyso-Gb1 (Matreya LLC, USA) was achieved by the use of ALZET pumps implanted in the back of their necks and set to a flow rate of 2.64 μl/day in order to obtain a daily dosage of 10 mg lyso-Gb1/kg body weight. The pumps were loaded with the stock solution and primed prior to implantation according to the manufacturer's instructions.
(§3) Blood sampling was carried out using Li-heparine blood obtained from the lateral tail vein. At each sampling time point 2 aliquots of 20 μl were transferred to dried blood spot filter cards (Centogene AG, Rostock, Germany). After the last sampling time point the mice were sacrificed by inhalation of an overdose of isoflurane and organs were removed, frozen and collected for future examinations. Where applicable, organs were intersected. Half of the organ was immediately frozen in liquid nitrogen. The other half was formalin-fixed and paraffin-embedded for histologic analysis (Histalim, Montpellier, France).
3 punches of 3.2 mm in diameter were cut using a DBS puncher (Perkin Elmer LAS, Germany) and placed in a 2.2 ml round bottom tube (Eppendorf, Germany). 50 μl extraction solution (DMSO: water, 1:1) and 100 μI internal standard solution with the standard being dissolved in ethanol were added on top of the paper punches. Samples were mixed for 30 seconds and placed in an incubator (Heidolph, Schwabach, Germany) for 30 minutes at 37° C. under agitation at 700 rpm. […]
as §1, with “Chromatographic run was performed on a C8 column with pore size of 3 mM (ACE columns, Germany) using a flow rate of 0.9 ml/min preheated at 60° C. The 10 μl extract were injected on the column and the compounds were eluted using a linear gradient from 40% A (50 mM formic acid in water) to 100% B (50 mM formic acid in acetone:acetonitrile vol. 1:1). Upstream from UPLC a 3:1 flow splitter was added.” left out, “1000). […]” for “1000).”

[6] = Lyso-Gb1 in 24 hr urine (LC/MRM-MS); format: in vivo, C57BL/6JRj mice; conditions: 6 weeks after treatment start
Description: 25 μL urine aliquots were added to 100 μL of internal standard and 250 μL ethanol. The samples were cooled to 4° C. for 1 h to precipitate the urine proteins, after which they were spun in a benchtop centrifuge for 3 minutes at 14,500 rpm. The volume of each sample was quantitatively transferred to a 96-well plate, and further processed as described above.
as §1, with “The 10 μl extract were injected on the column and the compounds were eluted using a linear gradient from 40% A (50 mM formic acid in water) to 100% B (50 mM formic acid in acetone:acetonitrile vol. 1:1). Upstream from UPLC a 3:1 flow splitter was added.” left out

Organ weight analysis = format: in vivo, C57BL/6JRj mice
Description: as §3
3.2 As anemia is a frequent result of enlarged spleen, another hallmark of Gaucher disease, an organ weight analysis, a Western blot analysis and size and color analysis of the spleen was carried out. The results thereof are shown in FIG. 4A, FIG. 4B and FIG. 4C.

[7] = General health, body weight and behaviour during treatment; format: in vivo, C57BL/6JRj mice
Description: as §2
Ten weeks old C57BL/6JRj mice were subcutaneously treated with high doses (10 mg*kg−1*day−1) of lyso-Gb1 for a period of up to 84 days (12 weeks).

CCCCCCCCCCCCC/C=C/[C@@H](O)[C@@H](N)CO[C@@H]1O[C@H](CO)[C@@H](O)[C@H](O)[C@H]1O [lyso-Gb1, glucosylsphingosine]
organ with highest lyso-Gb1 levels ([1]; 4 weeks from treatment start): kidney and liver
lyso-Gb1 levels in peripheral organs (heart, kidney, liver, spleen) compared to control animals ([1]; 4 weeks from treatment start, 10 mg*kg^−1*day^−1): strongly elevated
increase of brain lyso-Gb1 ([1]; 4 weeks from treatment start, attributed to carryover of blood in tissue capillaries): 2 fold
crossing of the blood brain barrier ([1]; concluded from negligible increase in brain lyso-Gb1): not able to cross the blood brain barrier
number of CD68 and F4/80 positive cells in spleen sections in comparison to vehicle controls ([2]; paraffin sections from spleen): marked increase
CD68-immunoreactivity in spleen compared to vehicle controls ([2]; spleens of 8-week treated mice): strong increase
F4/80 immunoreactivity in spleen compared to vehicle controls ([2]; spleens of 8-week treated mice): increased
H&E histological stain of spleen, liver and femur, vehicle vs lyso-Gb1 treated [3]: did not reveal significant abnormalities
TNF-α and IL-1β in the blood (TNF-α and IL-1β): slight elevation
upregulation of most investigated cytokines (TNF-α and IL-1β): did not find significant upregulation
F4/80 and CD68 protein levels in liver (Western blot) (F4/80 and CD68; liver): only mild changes
F4/80 and CD68 protein levels in spleen (Western blot) (F4/80 and CD68; spleen): pronounced increase; also recorded: elevated
Hb (hemoglobin) values ([4]; 4, 8 and 12 weeks, 2× SD below the baseline value at each time point): mild anemia; also recorded: mild anaemia
Hct (haematocrit) values ([4]; differed at 4 and 8 weeks after treatment initiation): significantly differed; also recorded: lowered
thrombocytopenia / white blood cell abnormalities ([4]; up to 12 weeks treatment): no thrombocytopenia or abnormalities in white blood cells
lyso-Gb1 levels in blood ([5]; 24 hrs after treatment start (data not shown)): strongly elevated
increase of blood lyso-Gb1 level compared to the vehicle-treated mice ([5]; after 4, 8 and 12 weeks, s.c. 10 mg/kg/day): more than 500 fold
lyso-Gb1 level in blood ([5]; after 4, 8 and 12 weeks, s.c. osmotic pump, 10 mg lyso-Gb1/kg body weight daily): 700 to 900 ng/mL
concentration at 4 weeks ([5]; male, C57BL/6JRj, mouse, whole blood (dried blood spots), sc, 10 mg/kg/day, 4 weeks after begin of treatment, s.c. 10 mg*kg−1*day−1): > 0.5 µg/mL
calculated excretion rate of lyso-Gb1 in urine [6]: 0.6 ng/min
liver weight versus controls (Organ weight analysis; 8 and 12 weeks): not statistically significantly different; also recorded: not statistically distinct from control animals
spleen weight versus controls (Organ weight analysis; 8 and 12 weeks from treatment initiation): enlarged
liver size in subsequent experiment (Organ weight analysis; lyso-Gb1 treatment started earlier (P20), data not shown): marked enlargement of the liver
size of heart, lung and kidney (Organ weight analysis; mouse, in vivo): normal in size
behaviour ([7]; mouse, in vivo): no behavioral abnormalities
body weight / health status ([7]; throughout the experimental phase (up to 12 weeks)): did not lose weight
